Each molecule was assayed on LTD4 induced bronchoconstriction in guinea pigs (assay: in vivo inhibition of LTD4 induced bronchoconstriction (airway resistance RL) in guinea pigs). Settings: 5 mg/kg, intravenous.
Design: species or system guinea pig (adult male albino Hartley strain)
Protocol: (§1) The leukotriene antagonist activity of the compounds of this invention is measured by the ability of the compounds to inhibit the leukotriene induced contraction of guinea pig tracheal tissues in vitro and to inhibit leukotriene induced bronchoconstriction in guinea pigs in vivo. The following methodologies were employed: In vitro: Guinea pig (adult male albino Hartley strain) tracheal spiral strips of approximate dimensions 2 to 3 mm cross-sectional width and 3.5 cm length were bathed in modified Krebs buffer in jacketed 10 ml tissue bath and continously aerated with 95% 02 /5% CO2. The tissues were connected via silk suture to force displacement transducers for recording isometric tension. The tissues were equilibrated for 1 hr., pretreated for 15 minutes with meclofenamic acid (1 μM) to remove intrinsic prostaglandin responses, and then pretreated for an additional 30 minutes with either the test compound or vehicle control. A cumulative concentration-response curve for LTD4 on triplicate tissues was generated by successive increases in the bath concentration of the LTD4. In order to minimize intertissue variability, the contractions elicited by LTD4 were standardized as a percentage of the maximum response obtained to a reference agonist, carbachol (10 μM).
Calculations: The averages of the triplicate LTD4 concentration-response curves both in the presence and absence of the test compound were plotted on log graph paper. The concentration of LTD4 needed to elicit 30% of the contraction elicited by carbachol was measured and defined as the EC30. The -log KB value for the test compound was determined by the following equations: [formula] In vivo: Anesthetized, spontaneously breathing guinea pigs (Adult male albino Hartley strain) were monitored on a Buxco pulmonary mechanics computer. Changes in airway resistance (RL) were calculated by the computer on a breath-by-breath basis at isovolumic points from signals measuring airflow and transpulmonary pressure using differential pressure transducers. Animals received either test compound or vehicle control intravenously via the jugular vein. LTD4 was then injected into the jugular vein. The bronchoconstriction produced was reflected by % changes in airways resistance relative to the baseline values obtained prior to injection of the test compound or vehicle control. Each guinea pig received either vehicle control or test compound.
Calculations: The average of 3-6 animals per treatment was calculated using the % changes in the pulmonary parameters for control and test compound-treated animals. The average % inhibition by the test compound was calculated from the following equation: [formula]
For `CCCCCCCCCCCCc1ccccc1C(SCCC(=O)O)SCCC(=O)O` [2 2 C12 H25 H, 4,6-Dithia-5-(2-dodecylphenyl)nonanedioic acid], the “% Inhibition of RL” value was 96.5%. In the case of `CCCCCCCCCCc1ccccc1C(SCCC(=O)O)SCCC(=O)O` [2 2 C10 H21 H, 4,6-dithia-5-(2-decylphenyl)nonanedioic acid], the “% Inhibition of RL” value is reported as 60.7%. `O=C(O)CCSC(SCCC(=O)O)c1ccccc1CCCCCCCCCCCC(F)(F)F` [2 2 C11 H22 CF3 H, 4,6-Dithia-5-[2-(12,12,12-trifluorododecyl)phenyl]nonanedioic acid] was tested, and the “% Inhibition of RL” value was 30.4%.

Same assay, conditions: 10 mg/kg, intravenous
`CCCCCCCCCCCOc1ccccc1C(SCCC(=O)O)SCCC(=O)O` [2 2 OC11 H23 H, 4,6-Dithia-5-(2-undecyloxyphenyl)nonanedioic acid] was tested, and the “% Inhibition of RL” value was 89.4%.

What follows are molecules tested against T1, leukotriene D4 (LTD4) induced contraction of guinea pig tracheal tissues (Cavia porcellus, UniProt Q2NNR5) (assay: in vitro inhibition of LTD4 induced contraction of guinea pig tracheal spiral strips). Settings: guinea pig trachea, LTD4 agonist, 30 min pretreatment with test compound.
T1 construct: Guinea pig (adult male albino Hartley strain) tracheal spiral strips; from tissue; host or cells: guinea pig trachea (spiral strips, adult male albino Hartley strain)
T1 sequence (Q2NNR5 1-340): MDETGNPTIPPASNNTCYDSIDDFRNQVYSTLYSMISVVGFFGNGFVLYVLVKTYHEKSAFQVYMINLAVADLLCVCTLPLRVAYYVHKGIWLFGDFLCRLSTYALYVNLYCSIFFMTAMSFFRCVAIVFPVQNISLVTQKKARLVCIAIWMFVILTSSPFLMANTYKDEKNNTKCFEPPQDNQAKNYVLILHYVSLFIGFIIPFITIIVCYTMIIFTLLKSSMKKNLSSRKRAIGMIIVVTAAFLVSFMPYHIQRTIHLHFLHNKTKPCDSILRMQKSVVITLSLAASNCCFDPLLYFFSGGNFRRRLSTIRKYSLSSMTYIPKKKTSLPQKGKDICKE
Type: cell-based, guinea pig (adult male albino Hartley strain)
Protocol: as §1, with “μM). Calculations: The averages of the triplicate LTD4 concentration-response curves both in the presence and absence of the test compound were plotted on log graph paper. The concentration of LTD4 needed to elicit 30% of the contraction elicited by carbachol was measured and defined as the EC30. The -log KB value for the test compound was determined by the following equations: [formula] In vivo: Anesthetized, spontaneously breathing guinea pigs (Adult male albino Hartley strain) were monitored on a Buxco pulmonary mechanics computer. Changes in airway resistance (RL) were calculated by the computer on a breath-by-breath basis at isovolumic points from signals measuring airflow and transpulmonary pressure using differential pressure transducers. Animals received either test compound or vehicle control intravenously via the jugular vein. LTD4 was then injected into the jugular vein. The bronchoconstriction produced was reflected by % changes in airways resistance relative to the baseline values obtained prior to injection of the test compound or vehicle control. Each guinea pig received either vehicle control or test compound.” for “μM).”
`CCCCCCCCCCCOc1cccc(C(SCCC(=O)O)SCCC(=O)O)c1` [2 2 H OC11 H23, 4,6-dithia-5-(3-undecyloxyphenyl)nonanedioic acid] was tested, and the Kb was 0.794 µM. In the case of `CCCCCCCCCOc1ccccc1C(SCCC(=O)O)SCCC(=O)O` [2 2 OC9 H19 H, 4,6-dithia-5-(2-nonyloxyphenyl)nonanedioic acid], the Kb is reported as 1.58 µM. `O=C(O)CCSC(SCCC(=O)O)c1cccc(CCCCCCCCc2ccccc2)c1` [2 2 H C8 H16 phenyl, 4,6-dithia-5-[3-(8-phenyloctyl)phenyl]nonanedioic acid] showed a Kb of 1 µM. `CCCCCCCCc1ccccc1C(SCCC(=O)O)SCCC(=O)O` [2 2 C8 H17 H, 4,6-dithia-5-(2-octylphenyl)nonanedioic acid] showed a Kb of 6.31 µM. `CCCCCCCCCCCOc1ccc(O)cc1C(SCCC(=O)O)SCCC(=O)O` [2 2 OC11 H23 OH, 4,6-dithia-5-(5-hydroxy-2-undecyloxyphenyl)nonanedioic acid] gave a Kb of 1 µM. `CCCCCCCCCCCCc1ccsc1C(SCCC(=O)O)SCCC(=O)O` [Formula (V) 2 2 C12 H25 H, 4,6-dithia-5-(3-dodecyl-2-thienyl)nonanedioic acid] showed a Kb of 1.26 µM. `CCCCCCCCCCCOc1ccc(Br)cc1C(SCCC(=O)O)SCCC(=O)O` [2 2 OC11 H23 Br, 4,6-dithia-5-(5-bromo-2-undecyloxyphenyl)nonanedioic acid] was tested, and the Kb was 1 µM. For `CCCCCCCCCCCOc1ccccc1C(C)(SCCC(=O)O)SCCC(=O)O` [4,6-dithia-5-methyl-5-(2-undecyloxyphenyl)nonanedioic acid], the Kb was 5.01 µM. For `CCCCCCCCCCCCc1ccccc1C(SCC(=O)O)SCC(=O)O` [1 1 C12 H25 H, 3,5-dithia-4-(2-dodecylphenyl)heptanedioic acid], the Kb was 1.26 µM. Molecule `CCCCC/C=C\C/C=C\COc1cccc(C(SCCC(=O)O)SCCC(=O)O)c1` [2 2 H OCH2 CHCHCH2 CHCHC5 H11, 4,6-dithia-5-[3-(2(Z),5(Z)-undecadienyloxy)phenyl]nonanedioic acid] has a Kb of 0.794 µM. In the case of `CCCCCCCCCCCCc1csc(C(SCCC(=O)O)SCCC(=O)O)c1` [Formula (V) 2 2 H C12 H25, 4,6-Dithia-5-(4-dodecyl-2-thienyl)nonanedioic acid], the Kb is reported as 3.16 µM. `O=C(O)CCSC(SCCC(=O)O)c1cc(C(F)(F)F)ccc1CCCCCCCCc1ccccc1` [2 2 C8 H16 phenyl CF3, 4,6-Dithia-5-[2-(8-phenyloctyl)-5-trifluoromethylphenyl]nonanedioic acid] gave a Kb of 0.251 µM. For `CCCCCCCCCC/C=C/c1ccccc1C(SCCC(=O)O)SCCC(=O)O` [2 2 CHCHC10 H21 trans H, 4,6-Dithia-5-[2-(1-trans-dodecenyl)phenyl]nonanedioic acid], the Kb was 1.58 µM. `CCCc1c(OCCCCCOc2ccccc2C(SCCC(=O)O)SCCC(=O)O)ccc(C(C)=O)c1O` [4,6-Dithia-5-[2-(5-(4-acetyl-3-hydroxy-2-propylphenoxy)-pentoxy)phenyl]nonanedioic acid] gave a Kb of 0.251 µM. `CCCCCCCCCCCSc1ccccc1C(SCCC(=O)O)SCCC(=O)O` [2 2 SC11 H23 H, 4,6-Dithia-5-(2-undecylthiophenyl)nonanedioic acid] was tested, and the Kb was 1 µM. For `CCCCCCCCCCCOc1ccccc1C(SCCC(=O)O)SCCC(=O)O` [2 2 OC11 H23 H, 4,6-Dithia-5-(2-undecyloxyphenyl)nonanedioic acid], the Kb was 0.398 µM. Molecule `O=C(O)CCSC(SCCC(=O)O)c1ccccc1CCCCCCCCc1ccc(C(F)(F)F)cc1` [2 2 C8 H16(4-CF3 phenyl) H, 4,6-Dithia-5-[2-(8-(4-trifluoromethylphenyl)octyl)phenyl]nonanedioic acid] has a Kb of 0.631 µM. For `O=C(O)CCSC(SCCC(=O)O)c1ccccc1CCCCCC/C=C\c1ccccc1` [2 2 (CH2)6CHCHphenyl H, 4,6-Dithia-5-[2-(8-phenyl-7(Z)-octenyl)phenyl]nonanedioic acid], the Kb was 0.631 µM. `CCCCCCCCCCCCc1ccccc1C(SCCC(=O)O)[S+]([O-])CCC(=O)O` (centres unmarked) [5-(2-dodecylphenyl)-4-sulfinyl-6-thianonanedioic acid] gave a Kb of 1.58 µM. `CCCCCCCCCCCCc1ccccc1C(SCCC(=O)O)SCCC(=O)O` [2 2 C12 H25 H, 4,6-Dithia-5-(2-dodecylphenyl)nonanedioic acid] was tested, and the Kb was 0.631 µM. In the case of `CCCCCCCCCCc1ccccc1C(SCCC(=O)O)SCCC(=O)O` [2 2 C10 H21 H, 4,6-dithia-5-(2-decylphenyl)nonanedioic acid], the Kb is reported as 0.316 µM. Work on `CCCCCCCCCCCOc1ccc([N+](=O)[O-])cc1C(SCCC(=O)O)SCCC(=O)O` [2 2 OC11 H23 NO2, 4,6-dithia-5-(5-nitro-2-undecyloxyphenyl)nonanedioic acid] yielded a Kb of 0.794 µM. `O=C(O)CCSC(SCCC(=O)O)c1ccccc1CCCCCCCCC1CCCCC1` [2 2 C8 H16 cyclohexyl H, 4,6-Dithia-5-[2-(8-cyclohexyloctyl)phenyl]nonanedioic acid] gave a Kb of 3.16 µM. Work on `O=C(O)CCSC(SCCC(=O)O)c1ccccc1CCCCCCCSc1ccccc1` [2 2 C7 H4 S phenyl H, 4,6-Dithia-5-[2-(7-phenylthioheptyl)phenyl]nonanedioic acid] yielded a Kb of 0.398 µM. In the case of `O=C(O)CCSC(SCCC(=O)O)c1ccccc1CCCCCCCCCCCC(F)(F)F` [2 2 C11 H22 CF3 H, 4,6-Dithia-5-[2-(12,12,12-trifluorododecyl)phenyl]nonanedioic acid], the Kb is reported as 0.631 µM. `CCCCC/C=C\C/C=C\COc1ccccc1C(SCCC(=O)O)SCCC(=O)O` [2 2 OCH2CHCHCH2CHCHC5 H11 H, 4,6-dithia-5-[2-(2(Z),5(Z)-undecadienyloxy)phenyl]nonanedioic acid] gave a Kb of 1 µM. Molecule `CCCCc1ccc(CCCCc2ccccc2C(SCCC(=O)O)SCCC(=O)O)cc1` [2 2 [drawing 19] H, 4,6-Dithia-5-[2-(4-(4-butylphenyl)butyl)phenyl]nonanedioic acid] has a Kb of 2.51 µM. For `CCCCCCCCCOc1cccc(C(SCCC(=O)O)SCCC(=O)O)c1` [2 2 H OC9 H19, 4,6-dithia-5-(3-nonyloxyphenyl)nonanedioic acid], the Kb was 1.26 µM. `C#CCCCCCCCCCCc1ccccc1C(SCCC(=O)O)SCCC(=O)O` [2 2 C10 H20 CCH H, 4,6-Dithia-5-[2-(11-dodecynyl)phenyl]nonanedioic acid] gave a Kb of 0.398 µM. `CCCCCCCCCCC#Cc1ccccc1C(SCCC(=O)O)SCCC(=O)O` [2 2 CCC10 H21 H, 4,6-Dithia-5-[2-(1-dodecyn-1-yl)phenyl]nonanedioic acid] gave a Kb of 0.794 µM. Molecule `CCCCCCCCCCCOc1ccc(OC)cc1C(SCCC(=O)O)SCCC(=O)O` [2 2 OC11 H23 CH3 O, 4,6-dithia-5-(5-methoxy-2-undecyloxyphenyl)nonanedioic acid] has a Kb of 1.26 µM.

Source: patent US4730005A, “Leukotriene antagonist” (SmithKline Beckman Corporation, priority 1986, dated 1988)
